According to US20250009841A1, “Methods of Diagnosing and Managing Bleeding Disorders” (Emory University, priority 2023, published 2025):

System: healthy donor platelets
Assay: Monoclonal antibody contraction experiments on the platelet contraction cytometer
Assay type: cell-based, human
Conditions: 2.5 μg/mL monoclonal antibody
Method: Blood was drawn into acid-citrate-dextrose (ACD) solution 2 (VWR) and was subsequently centrifuged at 150 G for 15 min without brake and the resulting platelet rich plasma (PRP) was centrifuged again with an additional 10% ACD by volume at 900 G for 5 min without brake. The supernatant, platelet poor plasma, was discarded or utilized to isolate patient polyclonal IgG antibodies. The platelet pellet was resuspended into HEPES modified buffer and was gel filtered into this same buffer using a gel filtration column. Platelets were then diluted to 2 million/mL prior to contraction cytometry to reduce paracrine signaling and minimize platelet aggregate formation.
Each contraction cytometer contains large arrays of fibrinogen microdots pairs that are patterned onto a polyacrylamide hydrogel with a stiffness of about 75 k Pa. […] These values for microdot size and spacing ensured that platelets preferentially attached to the microdots and were able to spread to neighboring microdot in the microdot pair and contract. […]
Platelet contraction was imaged on a confocal microscope using a 20×/0.8 NA lens. […] Images were analyzed using a script which calculated the center-to-center distance between fibrinogen microdots. […] Traction forces (T) of individual platelets were calculated as: T=2πGa (xs−xf)/2−v. […]

Row | Molecule | effect on platelet contractile force (15 minutes prior to thrombin activation) | effect on platelet adhesion (fibrinogen microdots)
1 | PAC-1 | lowers contractile forces | –
2 | abciximab (antibody, chains of the INN, looked up, V domains shown) VH: EVQLQQSGTVLARPGASVKMSCEASGYTFTNYWMHWVKQRPGQGLEWIGAIYPGNSDTSYIQKFKGKAKLTAVTSTTSVYMELSSLTNEDSAVYYCTLYDGYYVFAYWGQGTLVTVSA VL: EIVLTQSPVTLSVTPGDSVSLSCRASRDISNNLHWFQQTSHESPRLLIKYASQSMSGIPSRFSGSGSGTDFTLSINSVETEDFGMYFCQQTNSWPYTFGGGTKLEIK | – | blocks adhesion
